{"source": "paper PMC11990615", "about": "(Molecules, 2025)", "key": {"[1]": {"test_system": "Colletotrichum gloeosporioides", "experiment": "Fungicidal activity, mycelial growth inhibition on PDA plates", "conditions": "for Inhibition rate: at a concentration of 26.5 μmol/L; for inhibition at 26.5 µM: read-out: Inhibition rate; for IC50: mycelial growth, 96 h dark incubation at 26 °C", "method": "Pure water was used as a negative control. Mycelial plugs with a diameter of 5 mm were positioned in the middle of PDA plates that held various sample concentrations. Every treatment was carried out three times. […] The formula used to compute the suppression of mycelial growth was inhibition (%) = (Dc − Dt)/(Dc − 5) × 100%, where Dc and Dt are the diameters in millimeters of the treatment colony and the control colony, respectively. […] The tests, in turn, constructed t-statistics and determined the signifi-cance of differences between groups."}, "[2]": {"experiment": "Photostability under UV irradiation (photolysis kinetics)", "format": "physicochemical", "conditions": "aqueous solution 26.6 μmol/L, 15 W UV lamp 254 nm, 25 °C; for half-life at 26.6 μmol/L: read-out: t1/2, photolysis half-life (converted)", "experimental": "Photostability evaluation. […] At different time intervals (0, 0.5, 1, 1.5, 2, 3, 4, and 6 h), 100 μL of the solutions was accurately removed from the vials, diluted tenfold with methanol, and analyzed by HPLC-MS/MS. Instrument specifications are detailed in the Supporting Information.\nAs dark controls, aluminum foil-wrapped quartz tubes were used to prevent the impact of outside variables. […] The coefficient of determination r^2 was used to describe the goodness of fit of the curves. The half-lives t1/2 of the chemicals were calculated by the following formula:(2) t1/2=−ln(0.5)/K"}, "[3]": {"experiment": "Interfacial surface tension, Wilhelmy plate method", "format": "physicochemical", "conditions": "saturated aqueous solution, 25 °C; no unit printed with the values (method: mN/m)", "experimental": "Pure water’s surface tension was used to calibrate the device. After cleaning and drying, the sensing platinum plate was slowly oriented perpendicular to the solution interface. The plate will stop when the liquid surface tension and other relevant forces reach a balance. The interfacial surface tension values of the test chemicals were noted. Each compound was determined with three parallel samples."}, "[4]": {"conditions": "weak base; no reference given; cited from earlier work"}, "[5]": {"parameters": "method as in earlier work", "conditions": "cited from earlier work"}, "[6]": {"experiment": "Octanol-water partition coefficient, shake-flask method", "format": "physicochemical", "conditions": "n-octanol/water, 25 °C", "experimental": "Initially, a n-octanol solution containing 2000 mg/L of the compound was mixed with water in centrifuge tubes at 1:2, 1:1, and 2:1 volume ratios, with two parallel samples for each ratio. All tubes were shaken at a constant temperature of 25 °C for 3 h. Subsequently, the samples were centrifuged at 4000 rpm for 10 min. The octanol and aqueous phases were then carefully collected and diluted tenfold with methanol, and their concentrations were measured using HPLC-UV and HPLC-MS/MS, respectively. Instrument specifications are detailed in the Supporting Information."}, "aquatic organisms": {"test_system": "aquatic organisms", "parameters": "method as in earlier work", "conditions": "cited from earlier work"}, "[7]": {"conditions": "Colletotrichum gloeosporioides, 96 h"}}, "note": "Several values for one entry are separate records, joined by “and”; a condition that tells them apart may be missing. Equal values may be shown once.", "data": [{"smiles": "CC(=O)O", "note": "[Acetic acids, Acetic acid]", "values": [{"measurement": "Inhibition rate", "setting": "[1]", "value": "8.3 ± 2.3", "unit": "%"}]}, {"smiles": "O=C(O)c1ccccc1", "note": "[Benzoic acids, Benzoic acid]", "values": [{"measurement": "inhibition at 26.5 µM", "setting": "[1]; Colletotrichum gloeosporioides", "value": "7.2 ± 1.2", "unit": "%"}]}, {"smiles": "O=C(O)/C=C/c1ccccc1", "note": "[Cinnamic acids, Cinnamic acid]", "values": [{"measurement": "inhibition at 26.5 µM", "setting": "[1]; Colletotrichum gloeosporioides", "value": "7.5 ± 2.4", "unit": "%"}]}, {"smiles": "CC(O)C(=O)O", "note": "(stereo not shown) [Lactic acids, Lactic acid]", "values": [{"measurement": "inhibition at 26.5 µM", "setting": "[1]; Colletotrichum gloeosporioides", "value": "6 ± 1", "unit": "%"}]}, {"smiles": "CCCCCCCCC(=O)O", "note": "[Nonanoic acids, Nonanoic acid]", "values": [{"measurement": "inhibition at 26.5 µM", "setting": "[1]; Colletotrichum gloeosporioides", "value": "1.8 ± 1.3", "unit": "%"}]}, {"smiles": "CCCCCCCC/C=C\\CCCCCCCC(=O)O", "note": "[Oleic acids, Oleic acid]", "values": [{"measurement": "inhibition at 26.5 µM", "setting": "[1]; Colletotrichum gloeosporioides", "value": "3.4 ± 1.3", "unit": "%"}]}, {"smiles": "CCCN(CCOc1c(Cl)cc(Cl)cc1Cl)C(=O)n1ccnc1", "note": "[Prochloraz, N-propyl-N-(2,4,6-trichlorophenoxy)ethyl-imidazole-1-carboxamide]", "values": [{"measurement": "K, first-order photolysis rate constant", "setting": "[2]", "value": 0.641, "unit": "h⁻¹"}, {"measurement": "half-life at 26.6 μmol/L", "setting": "[2]", "value": 64.8, "unit": "min"}, {"measurement": "Interfacial surface tension", "setting": "[3]", "value": 51.75}, {"measurement": "pKa", "setting": "[4]", "value": 3.8}, {"measurement": "IC50", "setting": "[1]; [7]", "value": "1.39 µM and 0.52 µg/mL"}, {"measurement": "inhibition at 26.5 µM", "setting": "[1]; Colletotrichum gloeosporioides", "value": "100 ± 0.1", "unit": "%"}, {"measurement": "Photolysis half-life in water", "setting": "[5]", "value": 1.5, "unit": "days"}, {"measurement": "logKow", "setting": "[6]", "value": 3.52}, {"measurement": "Concentrations at which embryonic mortality and developmental effects were observed", "setting": "aquatic organisms", "value": "2.4 mg/L and 4.8 mg/L"}]}, {"smiles": "CC(=O)C(=O)O", "note": "[Pyruvic acids, Pyruvic acid]", "values": [{"measurement": "inhibition at 26.5 µM", "setting": "[1]; Colletotrichum gloeosporioides", "value": "4.5 ± 0.4", "unit": "%"}]}, {"smiles": "O=C(O)c1ccccc1O", "note": "[Salicylic acids, Salicylic acid]", "values": [{"measurement": "inhibition at 26.5 µM", "setting": "[1]; Colletotrichum gloeosporioides", "value": "4.5 ± 0.3", "unit": "%"}]}, {"smiles": "O=C([O-])c1ccccc1O.[Na+]", "note": "[Sodium Salicylate]", "values": [{"measurement": "Inhibition rate", "setting": "[1]", "value": "2.0 ± 2.7", "unit": "%"}]}, {"smiles": "CC(=O)[O-].[Na+]", "note": "[Sodium acetate]", "values": [{"measurement": "Inhibition rate", "setting": "[1]", "value": "5.9 ± 0.5", "unit": "%"}]}, {"smiles": "O=C([O-])c1ccccc1.[Na+]", "note": "[Sodium benzoate]", "values": [{"measurement": "Inhibition rate", "setting": "[1]", "value": "3.0 ± 1.1", "unit": "%"}]}, {"smiles": "O=C([O-])/C=C/c1ccccc1.[Na+]", "note": "[Sodium cinnamate]", "values": [{"measurement": "Inhibition rate", "setting": "[1]", "value": "2.8 ± 1.1", "unit": "%"}]}, {"smiles": "CC(O)C(=O)[O-].[Na+]", "note": "(stereo not shown) [Sodium lactate]", "values": [{"measurement": "Inhibition rate", "setting": "[1]", "value": "4.0 ± 0.4", "unit": "%"}]}, {"smiles": "CCCCCCCCC(=O)[O-].[Na+]", "note": "[Sodium nonanoate]", "values": [{"measurement": "Inhibition rate", "setting": "[1]", "value": "2.9 ± 0.3", "unit": "%"}]}, {"smiles": "CCCCCCCC/C=C\\CCCCCCCC(=O)[O-].[Na+]", "note": "[Sodium oleate]", "values": [{"measurement": "Inhibition rate", "setting": "[1]", "value": "3.9 ± 2.6", "unit": "%"}]}, {"smiles": "CC(=O)C(=O)[O-].[Na+]", "note": "[Sodium pyruvate]", "values": [{"measurement": "Inhibition rate", "setting": "[1]", "value": "3.5 ± 0.2", "unit": "%"}]}, {"smiles": "CC(=O)O.CCCN(CCOc1c(Cl)cc(Cl)cc1Cl)C(=O)n1ccnc1", "note": "[[Pro][AceA]] [listing 1 of 2 here]", "values": [{"measurement": "half-life at 26.6 μmol/L", "setting": "[2]", "value": 104, "unit": "min"}, {"measurement": "IC50", "setting": "[1]; [7]", "value": 0.53, "unit": "µg/mL"}]}, {"smiles": "CC(=O)O.CCCN(CCOc1c(Cl)cc(Cl)cc1Cl)C(=O)n1ccnc1", "note": "[[Pro][AceA]] [listing 2 of 2 here]", "values": [{"measurement": "K, first-order photolysis rate constant", "setting": "[2]", "value": 0.400, "unit": "h⁻¹"}, {"measurement": "IC50", "setting": "[1]", "value": 1220, "unit": "nM"}]}, {"smiles": "CCCN(CCOc1c(Cl)cc(Cl)cc1Cl)C(=O)n1ccnc1.O=C(O)c1ccccc1", "note": "[[Pro][BenA]] [listing 1 of 2 here]", "values": [{"measurement": "half-life at 26.6 μmol/L", "setting": "[2]", "value": 54, "unit": "min"}, {"measurement": "IC50", "setting": "[1]; [7]", "value": 1.04, "unit": "µg/mL"}]}, {"smiles": "CCCN(CCOc1c(Cl)cc(Cl)cc1Cl)C(=O)n1ccnc1.O=C(O)c1ccccc1", "note": "[[Pro][BenA]] [listing 2 of 2 here]", "values": [{"measurement": "K, first-order photolysis rate constant", "setting": "[2]", "value": 0.774, "unit": "h⁻¹"}, {"measurement": "IC50", "setting": "[1]", "value": 2090, "unit": "nM"}]}, {"smiles": "CCCN(CCOc1c(Cl)cc(Cl)cc1Cl)C(=O)n1ccnc1.O=C(O)/C=C/c1ccccc1", "note": "[[Pro][CinA]]", "values": [{"measurement": "K, first-order photolysis rate constant", "setting": "[2]", "value": 0.305, "unit": "h⁻¹"}, {"measurement": "IC50", "setting": "[1]", "value": "2 µM and 1.05 mg/L"}]}, {"smiles": "CC(O)C(=O)O.CCCN(CCOc1c(Cl)cc(Cl)cc1Cl)C(=O)n1ccnc1", "note": "[[Pro][LacA]] [listing 1 of 2 here]", "values": [{"measurement": "half-life at 26.6 μmol/L", "setting": "[2]", "value": 106, "unit": "min"}, {"measurement": "IC50", "setting": "[1]; [7]", "value": 0.81, "unit": "µg/mL"}]}, {"smiles": "CC(O)C(=O)O.CCCN(CCOc1c(Cl)cc(Cl)cc1Cl)C(=O)n1ccnc1", "note": "[[Pro][LacA]] [listing 2 of 2 here]", "values": [{"measurement": "K, first-order photolysis rate constant", "setting": "[2]", "value": 0.391, "unit": "h⁻¹"}, {"measurement": "IC50", "setting": "[1]", "value": 1740, "unit": "nM"}]}, {"smiles": "CCCCCCCCC(=O)O.CCCN(CCOc1c(Cl)cc(Cl)cc1Cl)C(=O)n1ccnc1", "note": "[[Pro][NonA]]", "values": [{"measurement": "K, first-order photolysis rate constant", "setting": "[2]", "value": 0.438, "unit": "h⁻¹"}, {"measurement": "t1/2, photolysis half-life", "setting": "[2]", "value": 1.58, "unit": "h"}, {"measurement": "Interfacial surface tension", "setting": "[3]", "value": 41.24}]}, {"smiles": "CCCCCCCCC=CCCCCCCCC(=O)O.CCCN(CCOc1c(Cl)cc(Cl)cc1Cl)C(=O)n1ccnc1", "note": "[[Pro][OleA]]", "values": [{"measurement": "K, first-order photolysis rate constant", "setting": "[2]", "value": 0.552, "unit": "h⁻¹"}, {"measurement": "Interfacial surface tension", "setting": "[3]", "value": 42.53}, {"measurement": "IC50", "setting": "[1]", "value": 1.33, "unit": "µg/mL"}]}, {"smiles": "CCCN(CCOc1c(Cl)cc(Cl)cc1Cl)C(=O)n1ccnc1", "note": "[[Pro][OleA]]", "values": [{"measurement": "IC50", "setting": "[1]", "value": 2020, "unit": "nM"}]}, {"smiles": "CC(=O)C(=O)O.CCCN(CCOc1c(Cl)cc(Cl)cc1Cl)C(=O)n1ccnc1", "note": "[[Pro][PyrA]]", "values": [{"measurement": "K, first-order photolysis rate constant", "setting": "[2]", "value": 0.383, "unit": "h⁻¹"}, {"measurement": "t1/2, photolysis half-life", "setting": "[2]", "value": 1.81, "unit": "h"}]}, {"smiles": "CCCN(CCOc1c(Cl)cc(Cl)cc1Cl)C(=O)n1ccnc1.O=C(O)c1ccccc1O", "note": "[[Pro][SalA]] [listing 1 of 2 here]", "values": [{"measurement": "half-life at 26.6 μmol/L", "setting": "[2]", "value": 104, "unit": "min"}, {"measurement": "IC50", "setting": "[1]; [7]", "value": 1, "unit": "µg/mL"}]}, {"smiles": "CCCN(CCOc1c(Cl)cc(Cl)cc1Cl)C(=O)n1ccnc1.O=C(O)c1ccccc1O", "note": "[[Pro][SalA]] [listing 2 of 2 here]", "values": [{"measurement": "K, first-order photolysis rate constant", "setting": "[2]", "value": 0.401, "unit": "h⁻¹"}, {"measurement": "IC50", "setting": "[1]", "value": 1940, "unit": "nM"}]}]}
